Laboratory results taken from the NIST ThermoML archive (doi:10.1016/j.jct.2013.12.025).
Numbers after ± are expanded uncertainties.

Tests used:
[1] = 101 kPa, Liquid, Vibrating tube method
[2] = refractive index (Na D-line) (dimensionless); details: 101.33 kPa, Liquid, Standard Abbe refractometry
[3] = xn = mol fraction of the nth substance listed; details: 101 kPa, Liquid, Vibrating tube method, x2 = 0
[4] = refractive index (Na D-line) (dimensionless); xn = mol fraction of the nth substance listed; details: 101 kPa, Liquid, Standard Abbe refractometry, x2 = 0

SMILES | mass density ([1]; 283.15 K) | mass density ([1]; 288.15 K) | mass density ([1]; 293.15 K) | mass density ([1]; 298.15 K) | mass density ([1]; 303.15 K) | refractive index ([2]; 283.15 K) | refractive index ([2]; 288.15 K) | refractive index ([2]; 293.15 K) | refractive index ([2]; 298.15 K) | refractive index ([2]; 303.15 K) | mass density ([3]; 283.15 K) | mass density ([3]; 288.15 K) | mass density ([3]; 293.15 K) | mass density ([3]; 298.15 K) | mass density ([3]; 303.15 K) | refractive index ([4]; 283.15 K) | refractive index ([4]; 288.15 K) | refractive index ([4]; 293.15 K) | refractive index ([4]; 298.15 K) | refractive index ([4]; 303.15 K)
O=[N+]([O-])c1ccccc1 [nitrobenzene] | 1212.99 ± 1 kg/m3 | 1208.01 ± 1 kg/m3 | 1203.05 ± 1 kg/m3 | 1198.2 ± 1 kg/m3 | 1193.25 ± 1 kg/m3 | 1.55729 ± 0.00031 | 1.55485 ± 0.00031 | 1.55234 ± 0.00031 | 1.54992 ± 0.00031 | 1.54746 ± 0.00031 | – | – | – | – | – | – | – | – | – | –
Clc1ccccc1 [chlorobenzene] + C=C[Si](C)(C)O[Si](C)(C)C=C | – | – | – | – | – | – | – | – | – | – | 1117.29 ± 1 kg/m3 | 1111.89 ± 1 kg/m3 | 1106.55 ± 1 kg/m3 | 1101.16 ± 1 kg/m3 | 1095.79 ± 1 kg/m3 | 1.52992 ± 0.00032 | 1.52722 ± 0.00032 | 1.52446 ± 0.00032 | 1.52168 ± 0.00032 | 1.51893 ± 0.00032
CCc1ccccc1 [ethylbenzene] | 875.69 ± 1 kg/m3 | 871.3 ± 1 kg/m3 | 866.9 ± 1 kg/m3 | 862.58 ± 1 kg/m3 | 858.16 ± 1 kg/m3 | 1.50118 ± 0.00032 | 1.49845 ± 0.00032 | 1.49575 ± 0.00032 | 1.49301 ± 0.00032 | 1.4903 ± 0.00032 | – | – | – | – | – | – | – | – | – | –
Clc1ccccc1 [chlorobenzene] | 1117.29 ± 1 kg/m3 | 1111.89 ± 1 kg/m3 | 1106.55 ± 1 kg/m3 | 1101.16 ± 1 kg/m3 | 1095.79 ± 1 kg/m3 | 1.52992 ± 0.00032 | 1.52722 ± 0.00032 | 1.52446 ± 0.00032 | 1.52168 ± 0.00032 | 1.51893 ± 0.00032 | – | – | – | – | – | – | – | – | – | –
Fc1ccccc1 [fluorobenzene] + C=C[Si](C)(C)O[Si](C)(C)C=C | – | – | – | – | – | – | – | – | – | – | 1036.89 ± 1 kg/m3 | 1030.93 ± 1 kg/m3 | 1024.96 ± 1 kg/m3 | 1019.07 ± 1 kg/m3 | 1013.03 ± 1 kg/m3 | 1.47152 ± 0.00032 | 1.46859 ± 0.00032 | 1.46571 ± 0.00032 | 1.46283 ± 0.00032 | 1.45989 ± 0.00032
COc1ccccc1 [anisole] | 1003.3 ± 1 kg/m3 | 998.62 ± 1 kg/m3 | 994.01 ± 1 kg/m3 | 989.32 ± 1 kg/m3 | 984.59 ± 1 kg/m3 | 1.52242 ± 0.00031 | 1.51985 ± 0.00031 | 1.51724 ± 0.00031 | 1.5146 ± 0.00032 | 1.51191 ± 0.00032 | – | – | – | – | – | – | – | – | – | –
COc1ccccc1 [anisole] + C=C[Si](C)(C)O[Si](C)(C)C=C | – | – | – | – | – | – | – | – | – | – | 1003.3 ± 1 kg/m3 | 998.62 ± 1 kg/m3 | 994.01 ± 1 kg/m3 | 989.32 ± 1 kg/m3 | 984.59 ± 1 kg/m3 | 1.52242 ± 0.00031 | 1.51985 ± 0.00031 | 1.51724 ± 0.00031 | 1.5146 ± 0.00032 | 1.51191 ± 0.00032
C=C[Si](C)(C)O[Si](C)(C)C=C [1,3-diethenyl-1,1,3,3-tetramethyldisiloxane] | 822.67 ± 1 kg/m3 | 817.77 ± 1 kg/m3 | 812.92 ± 1 kg/m3 | 808 ± 1 kg/m3 | 803.07 ± 1 kg/m3 | 1.41766 ± 0.00032 | 1.415 ± 0.00032 | 1.41236 ± 0.00032 | 1.4097 ± 0.00032 | 1.40707 ± 0.00032 | – | – | – | – | – | – | – | – | – | –
O=[N+]([O-])c1ccccc1 [nitrobenzene] + C=C[Si](C)(C)O[Si](C)(C)C=C | – | – | – | – | – | – | – | – | – | – | 1212.99 ± 1 kg/m3 | 1208.01 ± 1 kg/m3 | 1203.05 ± 1 kg/m3 | 1198.2 ± 1 kg/m3 | 1193.25 ± 1 kg/m3 | 1.55729 ± 0.00031 | 1.55485 ± 0.00031 | 1.55234 ± 0.00031 | 1.54992 ± 0.00031 | 1.54746 ± 0.00031
Fc1ccccc1 [fluorobenzene] | 1036.89 ± 1 kg/m3 | 1030.93 ± 1 kg/m3 | 1024.96 ± 1 kg/m3 | 1019.07 ± 1 kg/m3 | 1013.03 ± 1 kg/m3 | 1.47152 ± 0.00032 | 1.46859 ± 0.00032 | 1.46571 ± 0.00032 | 1.46283 ± 0.00032 | 1.45989 ± 0.00032 | – | – | – | – | – | – | – | – | – | –
CCc1ccccc1 [ethylbenzene] + C=C[Si](C)(C)O[Si](C)(C)C=C | – | – | – | – | – | – | – | – | – | – | 875.69 ± 1 kg/m3 | 871.3 ± 1 kg/m3 | 866.9 ± 1 kg/m3 | 862.58 ± 1 kg/m3 | 858.16 ± 1 kg/m3 | 1.50118 ± 0.00032 | 1.49845 ± 0.00032 | 1.49575 ± 0.00032 | 1.49301 ± 0.00032 | 1.4903 ± 0.00032
